Test system: captive live fish
Experiment: Holding captive live fish in water treated with isoeugenol
Format: in vivo
Excerpt: The first key ingredient of the chemical mixture for treating the water in fish tanks of the present invention is isoeugenol (2-Methoxy-4-propenylphenol; 4-hydroxy-3-methoxy-1-propenylbenzene; 4-propenylguaiacol) C10H1202. Isoeugenol is an essential oil derived from oil of clove that has anesthetizing capabilities for fish in water. In the preferred embodiment, the formula for maintaining the life of fish contains about 43 ppm±10% of isoeugenol to slow the metabolism of captive live fish.
The benefits of treating the water in which fish are held or transported with isoeugenol are threefold. First, the metabolism of the fish is slowed and therefore the fish require less oxygen. The result is that more live fish may be held in smaller volumes of water. Also, live fish with a slower metabolism are easier to handle and fewer injuries are sustained by the fish.

[1] = overdoses up to 10 times the preferred amount of isoeugenol

CC=Cc1ccc(O)c(OC)c1 [isoeugenol, 2-Methoxy-4-propenylphenol]
effect on fish activity (sedation) (dosage rate of about 43 ppm±10% isoeugenol in the water): slow down fish activity sufficiently to allow handling of the live fish | coagulation of hook wounds (fish held in water treated with isoeugenol, metabolism calmed): hook wounds appear to coagulate faster | fish behaviour at overdose (equilibrium) [1]: some fish may still roll over and lose equilibrium | harm to fish at overdose [1]: not harmful to the fish

Reference: patent publication US20090288611A1, “Formula and method for treating water in fish tanks” (priority 2008, published 2009)
